From EP3351262A1, “CURAGLUTIDE FOR IN TREATMENT OF PREDIABETES, DIABETES, OBESITY AND METABOLIC DISEASES ASSOCIATED THERETO” (Istanbul Universitesi Rektorlugu, priority 2016, dated 2018)
Like-named read-outs stand apart in the source and are kept apart here.

System: INS-1 cells
Format: cell-based, rat
Conditions: for cell viability values: 24 hours, INS-1 cells, control 100±3.3%
Experimental: INS-1 cell strain from rat origin used in the studies was proliferated by performing routine passages once per week. The cells were grown under 1 atm pressure, in the incubator containing 5% CO2 and 95% air, in powder RPMI 1640 medium containing heat inactivated 10% fetal bovine serum (FBS) and antibiotics (100 unit/ml penicillin G100, 100 µg/ml streptomycin), 1% sodium pyruvate, hepes, sodium bicarbonate and beta-mercaptoethanol at 37 °C. The cells produced in 75 cm^2 sterile culture plate were used for the experiment when they covered 60-80% of the culture plate.
The cells to be used in the experiments were removed from the surface of culture plate where they stuck, when they cover 60-80% of the culture plate, by using trypsin. In order to prevent the effect of trypsin to cells whose removal was monitored under microscope, the medium with the equal amount as trypsin was added and the cell suspension was collected in the centrifuge tube and centrifuged in 1500 rpm for 5 minutes. The supernatant was removed after centrifuge, the medium was added to the cells remained in the bottom part of the tube and pipetted in order to form single cell suspension. The total amount of cells was calculated by using hemocytometer. 50 000 INS-1 beta cells taken from 100% viable single cell suspension, whose cell amount was calculated, were cultured to each of the culture plates with 96 wells. The cultured cells were incubated at 37 °C for 24 hours in order to provide the sticking to the surface of culture plate and growing. After 24 of incubation, the cells were treated with 0.25 mM, 0.5 mM, 0.75 mM, 1 mM, 1.25 mM, 1.5 mM, 1.75 mM, 2 mM, 2.5 mM, 2.75 mM, 3 mM, 3.25 mM, 3.5 mM, 3.75 mM,4 mM, 4.25 mM, 4.5 mM, 4.75 mM, 5 mM palmitic acid which were the chosen doses for palmitic acid. 10 wells including the control group were used in the experiments and 24-hour experiment groups were formed for each of the concentrations.
After the removal of the grown cells by trypsin, culturing was performed to 96 wells in a way such that there would be 50 000 cells in 200 µl. The cultured cells were incubated at 37 °C for 24 hours in order to provide growing. After 24 h of incubation, the cells were treated with 1nM, 10nM, 100nM curaglutide which were the chosen doses. 10 wells including the control group were used in the experiments and 24-hour experiment groups have been formed for each of the concentrations.
MTT ([3-(4, 5-dimethyl tiazol-2-il)-2, 5 diphenyl tetrazolium bromide]) test is a drug sensitivity test based on cell culture principal, it aims to assess the cell growth and/or cell death in an indirect way. This frequently used test differs from the other testing methods, with the advantages that it is fast, sensitive, reproducible and easy to apply. The cracking of the tetrazolium ring of MTT paint by mitochondria in living cells underlies the basis of this method. This reaction is catalyzed by succinate dehydrogenase which is a mitochondrial enzyme. MTT is absorbed to cells actively and it is reduced to formazan which is non-soluble in water and has blue-purple color, by the reaction taking place in mitochondria. The MTT reducing properties of the cells are accepted as the cell viability criteria and they are directly proportionate to the paint density and living cell amount obtained by MTT analyze. While living cells with non-damaged mitochondria function are painted with purple color, cells that are dead or with damaged mitochondria function are not painted. Following bringing the formazan crystals formed by incubated living cells into soluble form, reaction product is read […].
50 mg MTT (AppliChem A2231 0001) was weighed, it was dissolved by completing 10 ml with RPMI 1640 medium via vortex, with paying attention that there are no not-dissolved paint particles left, and they were obtained by filtering through 0.22 µm filter. It was used by preparing a fresh one each time. […]

Q: What does the source list for `CC[C@H](C)[C@H](NC(=O)[C@H](Cc1ccccc1)NC(=O)[C@H](CCC(=O)O)NC(=O)[C@H](CCCCN)NC(=O)[C@H](C)NC(=O)[C@H](C)NC(=O)[C@H](CCC(N)=O)NC(=O)CNC(=O)[C@H](CCC(=O)O)NC(=O)[C@H](CC(C)C)NC(=O)[C@H](Cc1ccc(O)cc1)NC(=O)[C@H](CO)NC(=O)[C@H](CO)NC(=O)[C@@H](NC(=O)[C@H](CC(=O)O)NC(=O)[C@H](CO)NC(=O)[C@@H](NC(=O)[C@H](Cc1ccccc1)NC(=O)[C@@H](NC(=O)CNC(=O)[C@H](CCC(=O)O)NC(=O)[C@H](C)NC(=O)[C@H](Cc1c[nH]cn1)NC(C)=O)[C@@H](C)O)[C@@H](C)O)C(C)C)C(=O)N[C@@H](C)C(=O)N[C@@H](Cc1c[nH]c2ccccc12)C(=O)N[C@@H](CC(C)C)C(=O)N[C@H](C(=O)N[C@@H](CCCCN)C(N)=O)C(C)C` [curaglutide]?
A: cell viability values (1 nM curaglutide alone): 104.50±3.70%; cell viability values (10 nM curaglutide alone): 121.80±7.30%; % cell viability values (10 nM curaglutide as curative agent (24 h after 24 h palmitic acid) for 1.75 mM palmitic acid (autophagic dose)): 78.3±1.6%; % cell viability values (10 nM curaglutide as curative agent for 2 mM palmitic acid (apoptotic dose)): 60.9±4.3%; % cell viability values (10 nM curaglutide as curative agent for 3 mM palmitic acid (necrotic dose)): 56.5±1.7%; % cell viability values (10 nM curaglutide as curative agent for 4 mM palmitic acid): 46.6±5.8%; % cell viability values (10 nM curaglutide as protective against 3 mM palmitic acid (necrotic dose)): 56.4±4.7%; % cell viability values (10 nM curaglutide as protector (24 h pre-treatment, then with palmitic acid 24 h) against 1.75 mM palmitic acid (autophagic dose)): 129.9±4.6%; % cell viability values (10 nM curaglutide as protector against 2 mM palmitic acid (apoptotic dose)): 103.9±0.6%; % cell viability values (10 nM curaglutide as protector against 4 mM palmitic acid): 52.2±4.6%; cell viability values (100 nM curaglutide alone): 115.20±3.30%
